Laboratory results from the NIST ThermoML archive (doi:10.1021/je700297c).
Numbers after ± are expanded uncertainties.

Experiment: activity coefficient (dimensionless); of the first substance listed, at infinite dilution; xn = mol fraction of the nth substance listed
Details: Liquid, Chromatography, x1 = 0

| Compound | activity coefficient (333 K) | activity coefficient (323 K) | activity coefficient (298 K) | activity coefficient (303 K) |
| --- | --- | --- | --- | --- |
| c1ccccc1 [benzene] + CCCCCCCCCCCCCCCC(=O)[O-].CCCCn1cc[n+](C)c1 | 0.7 ± 0.1 |  |  |  |
| c1ccccc1 [benzene] + CCCCCCCCCCCCCCCCCC(=O)[O-].CCCCn1cc[n+](C)c1 | 0.7 ± 0.1 | 0.7 ± 0.1 |  |  |
| c1ccccc1 [benzene] + CCCCCCCC[n+]1ccn(C)c1.F[B-](F)(F)F |  | 0.6 ± 0.1 | 0.7 ± 0.1 |  |
| c1ccccc1 [benzene] + CCCC[n+]1ccn(C)c1.O=S(=O)([N-]S(=O)(=O)C(F)(F)F)C(F)(F)F |  | 0.8 ± 0.1 |  |  |
| c1ccccc1 [benzene] + CCCCn1cc[n+](C)c1.F[B-](F)(F)F |  | 1.5 ± 0.1 | 1.5 ± 0.1 |  |
| c1ccccc1 [benzene] + C[n+]1ccn(CCCC#N)c1.N#CN=C=[N-] |  | 2.2 ± 0.2 |  | 2.3 ± 0.2 |
| c1ccccc1 [benzene] + C[n+]1ccn(CCCC#N)c1.O=S(=O)([N-]S(=O)(=O)C(F)(F)F)C(F)(F)F |  | 1.7 ± 0.1 |  | 1.8 ± 0.1 |
| C1CCCCC1 [cyclohexane] + CCCCCCCCCCCCCCCC(=O)[O-].CCCCn1cc[n+](C)c1 | 0.9 ± 0.1 |  |  |  |
| C1CCCCC1 [cyclohexane] + CCCCCCCCCCCCCCCCCC(=O)[O-].CCCCn1cc[n+](C)c1 | 1.2 ± 0.1 | 1.1 ± 0.1 |  |  |
| C1CCCCC1 [cyclohexane] + CCCCCCCC[n+]1ccn(C)c1.F[B-](F)(F)F |  | 3.9 ± 0.3 | 5.3 ± 0.4 |  |
| C1CCCCC1 [cyclohexane] + CCCC[n+]1ccn(C)c1.O=S(=O)([N-]S(=O)(=O)C(F)(F)F)C(F)(F)F |  | 6.7 ± 0.5 |  |  |
| C1CCCCC1 [cyclohexane] + CCCCn1cc[n+](C)c1.F[B-](F)(F)F |  | 24.7 ± 1.7 | 30.7 ± 2.1 |  |
| C1CCCCC1 [cyclohexane] + C[n+]1ccn(CCCC#N)c1.N#CN=C=[N-] |  | 58.9 ± 4 |  | 81.7 ± 5.6 |
| C1CCCCC1 [cyclohexane] + C[n+]1ccn(CCCC#N)c1.O=S(=O)([N-]S(=O)(=O)C(F)(F)F)C(F)(F)F |  | 45.9 ± 3.1 |  | 55.4 ± 3.8 |
| CCO [ethanol] + CCCCCCCCCCCCCCCC(=O)[O-].CCCCn1cc[n+](C)c1 | 0.4 ± 0.1 |  |  |  |
| CCO [ethanol] + CCCCCCCCCCCCCCCCCC(=O)[O-].CCCCn1cc[n+](C)c1 | 0.4 ± 0.1 | 0.5 ± 0.1 |  |  |
| CCO [ethanol] + CCCCCCCC[n+]1ccn(C)c1.F[B-](F)(F)F |  | 0.4 ± 0.1 | 0.5 ± 0.1 |  |
| CCO [ethanol] + CCCC[n+]1ccn(C)c1.O=S(=O)([N-]S(=O)(=O)C(F)(F)F)C(F)(F)F |  | 1.2 ± 0.1 |  |  |
| CCO [ethanol] + CCCCn1cc[n+](C)c1.F[B-](F)(F)F |  | 1 ± 0.1 | 1.1 ± 0.1 |  |
| CCO [ethanol] + C[n+]1ccn(CCCC#N)c1.N#CN=C=[N-] |  | 0.4 ± 0.1 |  | 0.5 ± 0.1 |
| CCO [ethanol] + C[n+]1ccn(CCCC#N)c1.O=S(=O)([N-]S(=O)(=O)C(F)(F)F)C(F)(F)F |  | 1.4 ± 0.1 |  | 1.7 ± 0.1 |
| CCOC(C)=O [ethyl acetate] + CCCCCCCCCCCCCCCC(=O)[O-].CCCCn1cc[n+](C)c1 | 1 ± 0.1 |  |  |  |
| CCOC(C)=O [ethyl acetate] + CCCCCCCCCCCCCCCCCC(=O)[O-].CCCCn1cc[n+](C)c1 | 1.1 ± 0.1 | 1.1 ± 0.1 |  |  |
| CCOC(C)=O [ethyl acetate] + CCCCCCCC[n+]1ccn(C)c1.F[B-](F)(F)F |  | 0.8 ± 0.1 | 0.9 ± 0.1 |  |
| CCOC(C)=O [ethyl acetate] + CCCC[n+]1ccn(C)c1.O=S(=O)([N-]S(=O)(=O)C(F)(F)F)C(F)(F)F |  | 0.7 ± 0.1 |  |  |
| CCOC(C)=O [ethyl acetate] + CCCCn1cc[n+](C)c1.F[B-](F)(F)F |  | 1.7 ± 0.1 | 1.8 ± 0.1 |  |
| CCOC(C)=O [ethyl acetate] + C[n+]1ccn(CCCC#N)c1.N#CN=C=[N-] |  | 2.7 ± 0.2 |  | 2.8 ± 0.2 |
